Reference: the NIST ThermoML archive (doi:10.1016/j.jct.2012.07.015)

Tests used:
[1] = for viscosity / mass density: 101.33 kPa; for viscosity / mass density / surface tension liquid-gas: Liquid; for mass density: Vibrating tube method
[2] = molar heat capacity at constant pressure; conditions: 101.33 kPa, Liquid, Small sample (50 mg) DSC
[3] = Molar enthalpy of transition or fusion; conditions: Crystal; DSC

CCCC[n+]1cccc(C#N)c1.O=S(=O)([N-]S(=O)(=O)C(F)(F)F)C(F)(F)F [1-butyl-3-cyanopyridinium bis(trifluoromethylsulfonyl)imide]
Conditions | Glass transition temperature [°C] | mass density [kg/m3] | molar heat capacity at constant pressure [J/K/mol] | surface tension liquid-gas [mN/m] | viscosity [mPa·s]
[1], 293.15 K | – | 1483.2 | – | – | 1546.7
[1], 298.15 K | – | 1478.7 | – | 32 | 983.7
[1], 303.15 K | – | 1474.2 | – | – | 659.7
[1], 308.15 K | – | 1469.7 | – | 31.77 | 485.1
[1], 313.15 K | – | 1465.3 | – | – | 327.5
[1], 318.15 K | – | 1460.8 | – | 31.59 | 240.7
[1], 323.15 K | – | 1456.3 | – | – | 182.6
[1], 328.15 K | – | 1452 | – | 31.39 | 140.5
[1], 333.15 K | – | 1447.7 | – | – | 110.1
[1], 338.15 K | – | 1443.4 | – | 31.09 | 87.9
[1], 343.15 K | – | 1439.1 | – | – | 67.6
[1], 348.15 K | – | 1434.8 | – | – | 55.3
[1], 353.15 K | – | 1430.5 | – | – | 45.8
[1], 358.15 K | – | 1426.3 | – | – | 38.5
[1], 363.15 K | – | 1422 | – | – | 32.8
[1], DTA | -54.4 | – | – | – | –
[2], 298.15 K | – | – | 586 | – | –
[2], 323.15 K | – | – | 596 | – | –
[2], 353.15 K | – | – | 605 | – | –

CCCCCC[n+]1ccc(C#N)cc1.O=S(=O)([N-]S(=O)(=O)C(F)(F)F)C(F)(F)F [1-hexyl-4-cyanopyridinium bis(trifluoromethylsulfonyl)imide]
Conditions | Glass transition temperature [°C] | mass density [kg/m3] | molar heat capacity at constant pressure [J/K/mol] | surface tension liquid-gas [mN/m] | viscosity [mPa·s]
[1], 293.15 K | – | 1411.6 | – | – | 1065.6
[1], 298.15 K | – | 1407.1 | – | 30.6 | 704.2
[1], 303.15 K | – | 1402.6 | – | – | 481.8
[1], 308.15 K | – | 1398.1 | – | 30.25 | 340.3
[1], 313.15 K | – | 1393.6 | – | – | 235.8
[1], 318.15 K | – | 1389.1 | – | 29.89 | 175.4
[1], 323.15 K | – | 1384.8 | – | – | 133.3
[1], 328.15 K | – | 1380.5 | – | 29.48 | 103.3
[1], 333.15 K | – | 1376.1 | – | – | 81.7
[1], 338.15 K | – | 1371.8 | – | 29.01 | 65.6
[1], 343.15 K | – | 1367.5 | – | – | 53.5
[1], 348.15 K | – | 1363.2 | – | – | 44.3
[1], 353.15 K | – | 1358.9 | – | – | 37.2
[1], 358.15 K | – | 1354.6 | – | – | 31.5
[1], 363.15 K | – | 1350.3 | – | – | 26.9
[1], DTA | -51.9 | – | – | – | –
[2], 298.15 K | – | – | 633 | – | –
[2], 323.15 K | – | – | 643 | – | –
[2], 353.15 K | – | – | 652 | – | –

Conditions | Triple point temperature [K]
[1], Crystal, DTA | 280.2

Conditions | Molar enthalpy of transition or fusion [kcal/mol]
[3] | 4.5
